The values below come from PMC12697872, “Rethinking the AI Paradigm for Solubility Prediction of Drug‑Like Compounds with Dual‐Perspective Modeling and Experimental Validation” (Advanced Science, 2025).

The solubility is the dissolved amount per volume that the medium holds. A lower solubility goes with little dissolved substance. For orientation: thermodynamic solubility means solubility found after equilibrating the solid with the medium.

For data set [1] the following is noted: cited from earlier work.
For data set [2] the following is noted: CASR-2 dataset, aqueous solubility class 0-6; cited from earlier work.
For data set [3] the following is noted: cited from earlier work; for LogS(mol/L): SC2-2 dataset (Second Solubility Challenge, loose subset), aqueous solubility; for Class: SC2-2 dataset, aqueous solubility class 0-6.
The nature of data set [4]: Saturation shake-flask aqueous solubility, gravimetric determination. Particulars: for Experimental Class: European Pharmacopoeia solubility class from the experimental solubility; for solubility at 48 h / solubility thermodynamic at 48 h: thermodynamic from solid; for solubility at 48 h: Experimental Log S; for solubility thermodynamic at 48 h: water (saturated aqueous solution).
Protocol: Excess solid drug was added to a vial to prepare supersaturated aqueous solutions. The vial was placed in a constant temperature mixer (Titan Technology, SD2‐100) at 25 °C and shaken for 48 h at a speed of 500 rpm. […] After equilibration, the solution was centrifugated at room temperature at 8000 rpm, and the supernatant was collected. The concentration of the supernatant was determined using the gravimetric method. A measured volume of the supernatant (e.g. 1 mL) was transferred to a pre‐weighted empty vial, dried in a vacuum oven at 70 °C, and re‐weighed. The difference between the initial and final weights represents the drug content in the saturated solution. Each compound was tested in triplicate to ensure accuracy.

The nature of data set [5]: 1H NMR on the saturated aqueous solution. Format: physicochemical. The protocol:
Each compound was tested in triplicate to ensure accuracy.

Setting [6] is: water, 25 °C, shaken 48 h, triplicate, Log S = base-10 logarithm of moles per liter.
The mark [7] stands for this setting: water, 25 °C, averaged over triplicate.
Where [8] appears, read: water, 25 °C, single replicate of triplicate.

≈ marks a conversion by molar mass, not a printed value. Where “and” joins values, the source holds several entries; their conditions need not be identical. Equal values may be shown once. Read-outs that look alike come from different tables or passages of the source.

Regarding `[2H]c1c([2H])c([2H])c2c(c1[2H])C([2H])([2H])C([2H])([2H])C([2H])([2H])C2([2H])[2H]`, the LogS in data set [1] (CASR-1 curated training data, aqueous, 25 ± 2 °C) was -0.8582 mol/L. Besides, in data set [1] (sheet Uncurated data, compiled records), the “LogS(mol/L)” value is on record as -0.8582 mol/L. Moreover, in data set [2], the Class is reported as 3 (Sparingly soluble (3)).
With `CCC(C)n1ncn(-c2ccc(N3CCN(c4ccc(OC[C@H]5CO[C@](Cn6cncn6)(c6ccc(Cl)cc6Cl)O5)cc4)CC3)cc2)c1=O` (stereo partly shown), in data set [3], the “LogS(mol/L)” value is -8.98 mol/L and the Class was 6 (Practically insoluble or insoluble (6)).
Take `CCCc1nc2c(C)cc(-c3nc4ccccc4n3C)cc2n1Cc1ccc(-c2ccccc2C(=O)O)cc1`: in data set [3], the “LogS(mol/L)” value is given as -6.73 mol/L and the Class is on record as 6 (Practically insoluble or insoluble (6)).
Take `CC(C)C[C@H]1C(=O)N2CCC[C@H]2[C@]2(O)O[C@](NC(=O)[C@@H]3C=C4c5cccc6[nH]c(Br)c(c56)C[C@H]4N(C)C3)(C(C)C)C(=O)N12`: in data set [3], the “LogS(mol/L)” value is given as -5.5 mol/L and the Class was 6 (Practically insoluble or insoluble (6)).
In the case of `CC#C[C@]1(O)CC[C@H]2[C@@H]3CCC4=CC(=O)CCC4=C3[C@@H](c3ccc(N(C)C)cc3)C[C@@]21C`, in data set [3], the “LogS(mol/L)” value is -5.22 mol/L and the Class is given as 6 (Practically insoluble or insoluble (6)).
On to `CC(C)N=c1cc2n(-c3ccc(Cl)cc3)c3ccccc3nc-2cc1Nc1ccc(Cl)cc1`, for which, in data set [3], the “LogS(mol/L)” value is on record as -9.05 mol/L and the Class is 6 (Practically insoluble or insoluble (6)).
`CC[C@]1(c2ccccc2)OC[C@H]([C@@H]2CCCCN2)O1`: in data set [3], the “LogS(mol/L)” value is -1.96 mol/L and the Class is 4 (Slightly soluble (4)).
Consider `COC1C=COC2(C)Oc3c(C)c(O)c4c(c3C2=O)C2=NC3(CCN(CC(C)C)CC3)NC2=C(NC(=O)C(C)=CC=CC(C)C(O)C(C)C(O)C(C)C(OC(C)=O)C1C)C4=O` (stereo not shown), for which, in data set [3], the “LogS(mol/L)” value is given as -4.09 mol/L and the Class is 6 (Practically insoluble or insoluble (6)).
`CO[C@]12CC[C@@]3(C[C@@H]1[C@@](C)(O)C(C)(C)C)[C@H]1Cc4ccc(O)c5c4[C@@]3(CCN1CC1CC1)[C@H]2O5`: in data set [3], the “LogS(mol/L)” value was -6.07 mol/L and the Class was 6 (Practically insoluble or insoluble (6)).
As to `COc1cc(/C=C/C(=O)CC(=O)/C=C/c2ccc(O)c(OC)c2)ccc1O`, in data set [3], the “LogS(mol/L)” value is on record as -5.36 mol/L and the Class was 6 (Practically insoluble or insoluble (6)).
On to `COc1ccc2[nH]c([S+]([O-])Cc3ncc(C)c(OC)c3C)nc2c1` (stereo not shown), for which, in data set [3], the “LogS(mol/L)” value is recorded as -3.7 mol/L and the Class is on record as 6 (Practically insoluble or insoluble (6)).
Regarding `Clc1ccc(COC(Cn2ccnc2)c2ccc(Cl)cc2Cl)c(Cl)c1` (stereo not shown), in data set [3], the “LogS(mol/L)” value is recorded as -5.82 mol/L and the Class is listed as 6 (Practically insoluble or insoluble (6)).
Turning to `O=C1[C@H](CC[C@H](O)c2ccc(F)cc2)[C@@H](c2ccc(O)cc2)N1c1ccc(F)cc1`, in data set [3], the “LogS(mol/L)” value is given as -4.94 mol/L and the Class is reported as 6 (Practically insoluble or insoluble (6)).
Consider `O=C(c1ccc(OCCN2CCCCC2)cc1)c1c(-c2ccc(O)cc2)sc2cc(O)ccc12`, for which the Class in data set [3] was 6 (Practically insoluble or insoluble (6)).
Turning to `N[C@@H](Cc1ccc(I)cc1)C(=O)O` [4‐Iodo‐L‐phenylalanine], the “Experimental Class” value in data set [4] is given as 5 (Very slightly soluble (5)). This compound showed a solubility at 48 h in data set [4] (setting [6]) of 1.81 mM (≈ 526 µg/mL).
In the case of `Cc1cc(=O)oc2cc(O[C@@H]3O[C@H](CO)[C@@H](O)[C@H](O)[C@H]3O)ccc12` [4‐methylumbelliferyl β‐D‐glucoside], in data set [4], the “Experimental Class” value is 4 (Slightly soluble (4)). Moreover, in data set [4] (setting [6]), the “Experimental Log S” value is on record as −1.886 ± 0.016.
`Nc1nc2c(c(=O)[nH]1)CC=N2` [7-Deazaguanine]: the “Experimental Log S” value in data set [4] (single replicate of triplicate) is -1.8036 and -1.6879. Further, the “Experimental S” value in data set [4] (single replicate of triplicate) is 2.1200 and 2.3600 and 3.0800. The compound further came in with a solubility (thermodynamic) at 48 h in data set [4] (25 °C, water) of 2520 µg/mL (≈ 16.8 mM). The solubility at 48 h is 16.6 mM (≈ 2490 µg/mL) in data set [4] (setting [7]) and 14.1 mM (≈ 2120 µg/mL) in data set [4] (setting [8]).
`Nc1nc2c(c(=O)[nH]1)CC=N2` [7‐Deazaguanine]: the “Experimental Class” value in data set [4] was 4 (Slightly soluble (4)). For the same compound, the solubility at 48 h in data set [4] (setting [6]) was 16.6 mM (≈ 2490 µg/mL).
For the compound `CC(C)NCC(O)COc1ccc(COCCOC(C)C)cc1` (stereo not shown) [CC(C)NCC(O)COc1ccc(COCCOC(C)C)cc1], in data set [3], the “LogS(mol/L)” value is -2.09 mol/L and the Class was 4 (Slightly soluble (4)).
With `CCN(CC)CCOC(=O)c1ccc(N)cc1` [CCN(CC)CCOC(=O)c1ccc(N)cc1], in data set [3], the “LogS(mol/L)” value is recorded as -2.3 mol/L and the Class is recorded as 4 (Slightly soluble (4)).
`CCc1ccc(CCOc2ccc(CC3SC(=O)NC3=O)cc2)nc1` (stereo not shown) [CCc1ccc(CCOc2ccc(CC3SC(=O)NC3=O)cc2)nc1]: in data set [3], the “LogS(mol/L)” value is listed as -6.2 mol/L and the Class is on record as 6 (Practically insoluble or insoluble (6)).
In the case of `COc1cc(NS(=O)(=O)c2ccc(N)cc2)nc(OC)n1` [COc1cc(NS(=O)(=O)c2ccc(N)cc2)nc(OC)n1], in data set [3], the “LogS(mol/L)” value was -3.74 mol/L and the Class was 6 (Practically insoluble or insoluble (6)).
Take `OC[C@H]1O[C@@H](n2cnc3c(O)ncnc32)C[C@@H]1O` [Deoxyinosine]: the “Experimental Class” value in data set [4] is reported as 3 (Sparingly soluble (3)). The “Experimental Log S” value in data set [4] (single replicate of triplicate) is -1.3814 and -1.3992. For the same compound, the “Experimental S” value in data set [4] (single replicate of triplicate) is 10.1800 and 10.4800 and 10.0600. The thermodynamic solubility at 48 h in data set [4] (25 °C, water) was 10200 µg/mL (≈ 40.6 mM). Further, the solubility at 48 h in data set [4] (setting [7]) is 40.6 mM (≈ 10200 µg/mL); in data set [4] (setting [6]) it was 40.6 mM (≈ 10200 µg/mL); in data set [4] (setting [8]) it was 40.4 mM (≈ 10200 µg/mL).
With `OC[C@@H](O)CN1CCN(c2ccccc2)CC1` [Levodropropizine, reference compound], the “Experimental Class” value in data set [4] is recorded as 2 (Soluble (2)). Moreover, in data set [4] (single replicate of triplicate), the “Experimental Log S” value was -0.8427. The “Experimental S” value in data set [4] (single replicate of triplicate) was 34.3300 and 33.9500. For the same compound, the thermodynamic solubility at 48 h in data set [4] (25 °C, water) was 34200 µg/mL (≈ 145 mM). The values for the solubility at 48 h in data set [4] (setting [7]), in data set [4] (setting [6]) and in data set [4] (setting [8]) were 145 mM (≈ 34200 µg/mL), 145 mM (≈ 34200 µg/mL) and 145 mM (≈ 34300 µg/mL), respectively.
In the case of `O=C(O)c1cc(-c2ccc(F)cc2F)ccc1O` [O=C(O)c1cc(-c2ccc(F)cc2F)ccc1O], in data set [3], the “LogS(mol/L)” value was -4.99 mol/L and the Class is 6 (Practically insoluble or insoluble (6)).
In the case of `O=c1[nH]cnc2c1ncn2[C@H]1CC[C@@H](CO)O1` [O=c1[nH]cnc2c1ncn2[C@H]1CC[C@@H](CO)O1], in data set [3], the Class is on record as 3 (Sparingly soluble (3)).
For `CC(=O)SCC(Cc1ccccc1)C(=O)NCC(=O)OCc1ccccc1` (stereo not shown) [Racecadotril, reference compound], the “Experimental Class” value in data set [4] was 6 (Practically insoluble or insoluble (6)). Besides, in data set [4] (single replicate of triplicate), the “Experimental Log S” value was -4.1710 and -3.8226 and -3.9232; the “Experimental S” value was 0.0260 and 0.0580 and 0.0460. Further, in data set [4] (25 °C, water), the solubility (thermodynamic) at 48 h was found to be 43.3 µg/mL (≈ 0.112 mM). In data set [4] (setting [7]), the solubility at 48 h is 0.107 mM (≈ 41.1 µg/mL). The same compound gave a solubility at 48 h in data set [4] (setting [6]) of 0.107 mM (≈ 41.1 µg/mL).
Consider `CC(=C(CCO)SSC(CCO)=C(C)N(C=O)Cc1cnc(C)nc1N)N(C=O)Cc1cnc(C)nc1N` [Thiamine disulfide], for which the “Experimental Class” value in data set [4] is listed as 4 (Slightly soluble (4)). The “Experimental Log S” value in data set [4] (single replicate of triplicate) was -2.3811 and -2.3222. The “Experimental S” value in data set [4] (single replicate of triplicate) was 1.9700 and 2.3400 and 2.6800. The compound also registered a thermodynamic solubility at 48 h in data set [4] (25 °C, water) of 2330 µg/mL (≈ 4.14 mM). Moreover, the solubility at 48 h in data set [4] (setting [7]) is 4.11 mM (≈ 2310 µg/mL); in data set [4] (setting [6]), 4.11 mM (≈ 2310 µg/mL); in data set [4] (setting [8]), 3.5 mM (≈ 1970 µg/mL).
Regarding `c1ccc2[nH]c(-c3cscn3)nc2c1` [c1ccc2[nH]c(-c3cscn3)nc2c1], the Class in data set [3] is recorded as 6 (Practically insoluble or insoluble (6)).
Consider `CCCC(=O)OC[C@@H](OC(=O)CCC)[C@@H](OC(=O)CCC)[C@H](Cn1c2nc(=O)[nH]c(=O)c-2nc2cc(C)c(C)cc21)OC(=O)CCC` [riboflavin tetrabutyrate], for which, in data set [5], the “Solute in saturated aqueous solution by 1H NMR” value is given as “no existence of solute in the solution”.
